Measured values from patent US20200290950A1, “ALKAMIDE COMPOUNDS AND USES THEREOF” (NORTH CAROLINA STATE UNIVERSITY, priority 2017, published 2020).

Experiments:
RBL-2H3 cells [1] = assay: PGE2 production, EIA, 8 hrs; format: cell-based, rat; conditions: 1 μM A23187, only at 100 μM
Protocol: FIGS. 6A-6B. A15 inhibits de novo production of TNF-α and PGE2 from RBL-2H3 cells. RBL-2H3 cells were plated and incubated overnight prior to stimulation. Cells were stimulated with 1 μM A23187 in combination with the indicated doses of A15. Supernatants were collected 8 hrs later and TNF-α (FIG. 6A) or PGE2 (FIG. 6B) levels were measured using ELISA kits. Data shown are the means±SEM from 3 independent experiments. Statistical analysis was performed using a one-way ANOVA with Dunnett's post-hoc test, *p<0.05, **p<0.01, ***p<0.001.
Bone marrow cells were isolated from the femurs of 6-8 week old C57BL/6 mice and cultured in RPMI-1640 containing 10% heat-inactivated FBS, non-essential amino acids, HEPES buffer, sodium pyruvate, 100 U/mL penicillin, 100 μg/mL streptomycin, 5 ng/mL mIL-3, and 5 ng/mL mSCF for 4-6 weeks until mature, bone marrow-derived mast cells (BMMCs) were obtained, as described previously (Kuehn et al., 2010). Differentiation into >98% mast cells was confirmed through toluidine blue staining (1%, pH 1). RBL-2H3, RAW 264.7, and Jurkat cells were obtained from the American Type Culture Collection (Manassas, Va.). […] Optical density was determined using a Synergy HT microplate reader (BioTek Instruments, Inc, Winooski, Vt.). […]

RBL-2H3 cells [2] = assay: β-Hexosaminidase release assay (Example 3); format: cell-based, rat
Protocol: FIGS. 21A-21D. The inhibition of degranulation is dependent on the length of the alkamide fatty acid chain. RBL-2H3 cells were plated overnight, stimulated with 1 μM A23187 (FIG. 21A) or 5 ng/mL DNP-BSA (FIG. 21B) for 1 h in the absence or presence of each compound. Graphs display the mean percent β-hex release. Data are presented as the mean of 4 experiments. Percent inhibition of degranulation of A23187 (FIG. 21C) or DNP-BSA (FIG. 21D) using data from A and B, respectively. *P<0.05, **P<0.01, ***P<0.001, one-way ANOVA with Dunnett's post hoc test compared to vehicle (A, B) or A15 (C, D).
RBL-2H3 cells (1.0×10^5 cells) were incubated with or without 0.1 μg/mL of IgE-DNP overnight in a 96 well plate at 37° C. with 5% CO2. The cells were washed with Tyrode's buffer and assayed with few modifications (Kuehn, Radinger, & Gilfillan, 2010). Briefly, IgE-DNP sensitized cells were stimulated 1 hour with 5 ng/mL of DNP-BSA in the absence or presence of each compound and incubated at 37° C. with 5% CO2. For experiments using only A23187 as the stimulant, cells were washed with Tyrode's buffer and stimulated 1 hour with 1 μM A23187 in the absence or presence of each compound and incubated at 37° C. with 5% CO2. The stimulated cells were centrifuged at 1200×g for 5 minutes. The supernatant or cell lysate (30 μL) was incubated with 3.4 mg/mL of p-NAG (10 μL) for 1 hour at 37° C. The reaction was terminated by addition of 0.2 M sodium carbonate (pH 10) and the absorbance was read at OD405 nm on a BioTek Synergy HT microplate reader. The total 3-hexosaminidase released from the cell was calculated as the difference between the OD of the supernatant and blank plus the difference between the OD of the lysate and blank. The percent β-hexosaminidase released from the cell was calculated as the difference between the OD of the supernatant and blank divided by the total β-hexosaminidase released from the cell multiplied by 100: ODsupernatant−ODblank/[(ODlysate−ODblank)+(ODsupernatant−ODblank)]*100.

RAW 264.7 cells = conditions: LPS-stimulated RAW 264.7 cells, literature; cited from earlier work

For CCCCCCC/C=C/C=C/C(=O)NCC(C)C [A15, (2E,4E)-N-Isobutyldodeca-2,4-dienamide], the “production of PGE2” value (RBL-2H3 cells [1]) was “weakly inhibited”, the “percent inhibition of degranulation” value (RBL-2H3 cells [2]; 5 ng/mL DNP-BSA, 1 hour) was 27% and the “percent inhibition of degranulation” value (RBL-2H3 cells [2]; 1 μM A23187, 1 hour) was 47%. The TNF-α production (RAW 264.7 cells) was “best inhibitors”.
